Measurements: patent US10407383B2, “Cyclopentene and cyclopentadiene compounds for controlling invertebrate pests” (BASF SE, priority 2014, dated 2019)

Experiments:
Format in all cases: in vivo
[1] = test system: Diamond Back Moth (Plutella Xylostella); test: Diamond back moth (Plutella xylostella), cabbage leaf dip, 3rd instar larvae; conditions: foliar, 72 hours after treatment, read-out: mortality in comparison with untreated controls
Description: B.6 Diamond Back Moth (Plutella Xylostella)
The active compound was dissolved at the desired concentration in a mixture of 1:1 (vol:vol) distilled water:aceteone. Surfactant (Kinetic HV) was added at a rate of 0.01% (vol/vol). The test solution was prepared at the day of use.
Leaves of cabbage were dipped in test solution and air-dried. Treated leaves were placed in petri dishes lined with moist filter paper and inoculated with ten 3rd instar larvae. Mortality was recorded 72 hours after treatment. Feeding damages were also recorded using a scale of 0-100%.

[2] = test system: boll weevil (Anthonomus grandis); test: Boll weevil (Anthonomus grandis), insect diet with eggs in 24-well plates; conditions: 120 h, egg and larval mortality, 5 days, read-out: mortality in comparison with untreated controls
Description: B.4 Boll Weevil (Anthonomus grandis)
For evaluating control of boll weevil (Anthonomus grandis) the test unit consisted of 24-well-microtiter plates containing an insect diet and 20-30 A. grandis eggs.
The compounds were formulated using a solution containing 75% v/v water and 25% v/v DMSO. Different concentrations of formulated compounds were sprayed onto the insect diet at 20 μl, using a custom built micro atomizer, at two replications.
After application, microtiter plates were incubated at about 23±1° C. and about 50±5% relative humidity for 5 days. Egg and larval mortality was then visually assessed.

[3] = test system: Mediterranean fruitfly (Ceratitis capitata); test: Mediterranean fruitfly (Ceratitis capitata), insect diet with eggs in microtiter plates; conditions: 120 h, egg and larval mortality, 5 days, read-out: mortality in comparison with untreated controls
Description: B.5 Mediterranean Fruitfly (Ceratitis capitata)
For evaluating control of Mediterranean fruitfly (Ceratitis capitata) the test unit consisted of microtiter plates containing an insect diet and 50-80 C. capitata eggs.
The compounds were formulated using a solution containing 75% v/v water and 25% v/v DMSO. Different concentrations of formulated compounds were sprayed onto the insect diet at 5 μl, using a custom built micro atomizer, at two replications.
(§1) After application, microtiter plates were incubated at about 28±1° C. and about 80±5% relative humidity for 5 days. Egg and larval mortality was then visually assessed.

[4] = test system: Rice Green Leafhopper (Nephotettix virescens); test: Rice green leafhopper (Nephotettix virescens), sprayed potted rice seedlings; conditions: adults, after 72 hours, read-out: mortality in comparison with untreated controls
Description: B.8 Rice Green Leafhopper (Nephotettix virescens)
Rice seedlings were cleaned and washed 24 hours before spraying. The active compounds were formulated in 1:1 acetone:water (vol:vol), and 0.01% vol/vol surfactant (Kinetic HV) was added. Potted rice seedlings were sprayed with 5-6 ml test solution, air dried, covered with Mylar cages and inoculated with 10 adults. Treated rice plants were kept at about 28-29° C. and relative humidity of about 50-60%. Percent mortality was recorded after 72 hours.

[5] = test system: Red Spider Mite (Tetranychus kanzawai); test: Red spider mite (Tetranychus kanzawai), sprayed potted cowpea beans; conditions: 72 hours after treatment, read-out: mortality in comparison with untreated controls
Description: B.9 Red Spider Mite (Tetranychus kanzawai)
The active compound was dissolved at the desired concentration in a mixture of 1:1 (vol:vol) distilled water:acetone. Surfactant (Kinetic HV) was added at a rate of 0.01% (vol/vol). The test solution was prepared at the day of use.
Potted cowpea beans of 4-5 days of age were cleaned with tap water and sprayed with 1-2 ml of the test solution using air driven hand atomizer. The treated plants were allowed to air dry and afterwards inoculated with 30 or more mites by clipping a cassava leaf section from rearing population. Treated plants were placed inside a holding room at about 25-27° C. and about 50-60% relative humidity. Percent mortality was assessed 72 hours after treatment.

[6] = test system: Orchid Thrips (Dichromothrips Corbetti); test: Orchid thrips (Dichromothrips corbetti), floral-immersion technique; conditions: adult thrips, 72 hours after treatment, read-out: mortality in comparison with untreated controls
Description: B.7 Orchid Thrips (Dichromothrips Corbetti)
Dichromothrips corbetti adults used for bioassay were obtained from a colony maintained continuously under laboratory conditions. For testing purposes, the test compound was diluted in a 1:1 mixture of acetone:water (vol:vol), plus Kinetic HV at a rate of 0.01% v/v.
Thrips potency of each compound was evaluated by using a floral-immersion technique. All petals of individual, intact orchid flowers were dipped into treatment solution and allowed to dry in Petri dishes. Treated petals were placed into individual re-sealable plastic along with about 20 adult thrips. All test arenas were held under continuous light and a temperature of about 28° C. for duration of the assay. After 3 days, the numbers of live thrips were counted on each petal. The percent mortality was recorded 72 hours after treatment.

[7] = test system: tobacco budworm (Heliothis virescens); test: Tobacco budworm (Heliothis virescens), insect diet with eggs in 96-well plates; conditions: 120 h, egg and larval mortality, 5 days, read-out: mortality in comparison with untreated controls
Description: B.3 Tobacco Budworm (Heliothis virescens)
For evaluating control of tobacco budworm (Heliothis virescens) the test unit consisted of 96-well-microtiter plates containing an insect diet and 15-25 H. virescens eggs.
The compounds were formulated using a solution containing 75% v/v water and 25% v/v DMSO. Different concentrations of formulated compounds were sprayed onto the insect diet at 10 μl, using a custom built micro atomizer, at two replications.
as §1

[8] = test system: green peach aphid (Myzus persicae); test: Green peach aphid (Myzus persicae), systemic, 96-well plates with liquid artificial diet under membrane; conditions: 72 h, adult aphids on treated diet, 3 days, read-out: mortality in comparison with untreated controls
From the text: B.1 Green Peach Aphid (Myzus persicae)
For evaluating control of green peach aphid (Myzus persicae) through systemic means the test unit consisted of 96-well-microtiter plates containing liquid artificial diet under an artificial membrane.
The compounds were formulated using a solution containing 75% v/v water and 25% v/v DMSO. Different concentrations of formulated compounds were pipetted into the aphid diet, using a custom built pipetter, at two replications.
After application, 5-8 adult aphids were placed on the artificial membrane inside the microtiter plate wells. The aphids were then allowed to suck on the treated aphid diet and incubated at about 23±1° C. and about 50±5% relative humidity for 3 days. Aphid mortality and fecundity was then visually assessed.

[9] = test system: vetch aphid (Megoura viciae); test: Vetch aphid (Megoura viciae), contact or systemic, broad bean leaf disks in 24-well plates; conditions: foliar, 120 h, adult aphids on sprayed leaf disks, 5 days, read-out: mortality in comparison with untreated controls
Description: B.2 Vetch Aphid (Megoura viciae)
For evaluating control of vetch aphid (Megoura viciae) through contact or systemic means the test unit consisted of 24-well-microtiter plates containing broad bean leaf disks.
The compounds were formulated using a solution containing 75% v/v water and 25% v/v DMSO. Different concentrations of formulated compounds were sprayed onto the leaf disks at 2.5 μl, using a custom built micro atomizer, at two replications.
After application, the leaf disks were air-dried and 5-8 adult aphids placed on the leaf disks inside the microtiter plate wells. The aphids were then allowed to suck on the treated leaf disks and incubated at about 23±1° C. and about 50±5% relative humidity for 5 days. Aphid mortality and fecundity was then visually assessed.

COC(=O)c1ccc(C2=CC(c3cc(Cl)cc(Cl)c3)(C(F)(F)F)CC2)cc1Cl (stereo not shown) [Compound 1-13, Methyl 2-chloro-4-[3-(3,5-dichlorophenyl)-3-(trifluoromethyl)cyclopenten-1-yl]-benzoate]
≥ 75%: mortality at 500 ppm [1] | mortality at 2500 ppm [2]

O=C(O)c1ccc(C2=CC(c3cc(Cl)cc(Cl)c3)(C(F)(F)F)CC2)cc1Cl (stereo not shown) [Compound 1-12, 2-Chloro-4-[3-(3,5-dichlorophenyl)-3-(trifluoromethyl)cyclopenten-1-yl]benzoic acid]
≥ 75%: mortality at 2500 ppm [2]

O=C(NC1CS(=O)(=O)C1)c1ccc(C2=CCC(c3cc(Cl)cc(Cl)c3)(C(F)(F)F)C2)cc1Cl (stereo not shown) [Compound 3-9, 2-Chloro-4-[4-(3,5-dichlorophenyl)-4-(trifluoromethyl)cyclopenten-1-yl]-N-(1,1-dioxothietan-3-yl)benzamide]
≥ 75%: mortality at 2500 ppm [3] | mortality at 500 ppm [4] | mortality at 500 ppm [1] | mortality at 500 ppm [5] | mortality at 500 ppm [6] | mortality at 2500 ppm [7] | mortality at 2500 ppm [2] | mortality at 2500 ppm [8] | mortality at 2500 ppm [9]

O=C(NC1CS(=O)(=O)C1)c1ccc(C2=CC(c3cc(Cl)cc(Cl)c3)(C(F)(F)F)CC2)cc1Cl (stereo not shown) [Compound 1-11, 2-Chloro-4-[3-(3,5-dichlorophenyl)-3-(trifluoromethyl)cyclopenten-1-yl]-N-(1,1-dioxothietan-3-yl)benzamide]
≥ 75%: mortality at 2500 ppm [3] | mortality at 500 ppm [4] | mortality at 500 ppm [1] | mortality at 500 ppm [5] | mortality at 500 ppm [6] | mortality at 2500 ppm [7] | mortality at 2500 ppm [2] | mortality at 2500 ppm [8] | mortality at 2500 ppm [9]

O=C(NC1CS(=O)(=O)C1)c1ccc(C2=CC(c3cc(Cl)cc(Cl)c3)(C(F)(F)F)C=C2)cc1Cl (stereo not shown) [Compound 2-12, 2-Chloro-4-[3-(3,5-dichlorophenyl)-3-(trifluoromethyl)cyclopenta-1,4-dien-1-yl]-N-(1,1-dioxothietan-3-yl)benzamide]
≥ 75%: mortality at 2500 ppm [3] | mortality at 500 ppm [4] | mortality at 500 ppm [1] | mortality at 500 ppm [5] | mortality at 500 ppm [6] | mortality at 2500 ppm [7] | mortality at 2500 ppm [2] | mortality at 2500 ppm [8] | mortality at 2500 ppm [9]

O=C(O)c1ccc(C2=CCC(c3cc(Cl)cc(Cl)c3)(C(F)(F)F)C2)cc1Cl (stereo not shown) [Compound 3-11, 2-Chloro-4-[4-(3,5-dichlorophenyl)-4-(trifluoromethyl)cyclopenten-1-yl]benzoic acid]
≥ 75%: mortality at 2500 ppm [2]
